In patent publication US11524004B2, “Analogs of proxisome proliferator activated receptor (PPAR) agonists and methods of using the same” (The University of Toledo, priority 2013, dated 2022):

Tests used:
[1] = test system: Human bone marrow-derived mesenchymal stem cells (MSCs); assay: MSC osteogenesis assay: Alizarin Red S osteoblast mineralization, with concomitant assessment of fat cell formation; type: cell-based; conditions: for osteogenic formation from MSCs: MSCs in osteogenic medium, test agent at 1, 2, 4, 10 or 20 μM every 2nd day for 21 days, Alizarin Red S; for profile of fat (AD) versus osteogenic (OS) effects during dose progression (bone should predominate): dose progression 1-20 μM
Protocol: Human bone marrow-derived mesenchymal stem cells (MSCs) were taken through 2-3 passages and distributed across a 24 well plate at a density of 1×10^5 cells/cm^2. The plates were cultured in α-MEM with 20% FBS for 1 day at 37° C. On day 2 the medium was switched to osteogenic media (Stem X-Vivo, R&D System, Minneapolis, Minn.) containing 10% FBS plus 50 μg/ml ascorbic acid and 3 mM β-glycerol-phosphate. MSCs were cultured in the osteogenic medium without (vehicle negative control) or with test agents at 1, 2, 4, 10 or 20 μM supplied every 2nd day for 21 days. GW 0427 (standard PPAR ligand as positive control) was delivered by the same regimen on every plate to account for experimental variation.
Plates were washed twice with ice-cold PBS and incubated in 50 mM Tris-HCl (pH 7.6). The cells were treated with 2% Alizarin Red S (pH 4.2) for 10 min and then washed with distilled water. Stained cells were visualized by phase-contrast microscopy to determine cell morphology and to verify the presence of mineralized nodules (red images). The intensities of the images were assessed by Image-Pro Analyzer (Media Cybernetics, Inc., Bethesda, Md.).

Compound `Cc1nc(-c2ccccc2)sc1CCOc1ccc(C=CC(=O)O)cc1` [BK-3-51, 4-[[4-Methyl-2-phenylthiazol-5-yl]methyl]methoxycinnamic Acid] has a melting point of 209 to 211 °C.
With `Cc1nc(-c2ccc(C(F)(F)F)cc2)sc1CNc1ccc(C=CC(=O)O)cc1` [BK-4-03, 4-[N-[5-Methylene-4-methyl-2-[4-(trifluoromethyl)phenyl]thiazole]]aminocinnamic Acid] the “osteogenic formation from MSCs” value [1] was “Increased osteogenic formation”.
For `Cc1nc(-c2ccc(C(F)(F)F)cc2)sc1CSc1ccc(C=CC(=O)O)cc1` [BK-4-04, 4-Thio-[5-methylene-4-methyl-2-[4-(trifluoromethyl)phenyl]thiazole]cinnamic Acid], the “osteogenic formation from MSCs” value [1] was “Increased osteogenic formation”.
With `Cc1nc(-c2ccc(C(F)(F)F)cc2)sc1CN(C)c1ccc(C=CC(=O)O)cc1` [BK-4-15, 4-[N-Methyl-N-[5-methylene-4-methyl-2-[4-(trifluoromethyl)phenyl]thiazole]]aminocinnamic Acid] the “profile of fat (AD) versus osteogenic (OS) effects during dose progression (bone should predominate)” value (shortened to “profile of fat (AD) versus osteogenic”) ([1]; MSC assay) was “most preferred profile” and the “osteogenic formation from MSCs” value [1] was “Increased osteogenic formation”.
For `Cc1nc(-c2ccc(C(F)(F)F)c(F)c2)sc1CNc1ccc(C=CC(=O)O)cc1` [BK-4-30, 4-[N-[5-methylene-4-methyl-2-[3-fluoro-4-(trifluoromethyl)phenyl]thiazole]]aminocinnamic Acid], the “profile of fat (AD) versus osteogenic” value ([1]; MSC assay) was “not as suitable”.
For `Cc1cc(SCc2sc(-c3ccc(C(F)(F)F)c(F)c3)nc2C)ccc1OCC(=O)O` [GW0742, reference compound], the “OS activity as dose range continued to 10 and 20 uM” value ([1]; MSC assay, 10 and 20 uM, estimated, averaged effects) was “decreased” and the “profile of fat (AD) versus osteogenic” value ([1]; MSC assay) was “initially demonstrates such a preference”.
With `Cc1nc(-c2ccc(C(F)(F)F)c(F)c2)sc1COc1ccc(C=CC(=O)O)cc1` [JM-4-57, 4-[Oxo-[5-methylene-4-methyl-2-[3-fluoro-4-(trifluromethyl)phenyl]thiazole]]cinnamic Acid] the “osteogenic formation from MSCs” value [1] was “Increased osteogenic formation” and the “concentration at which osteogenic activity peaks” value ([1]; MSCs, 21 days, doses 1-20 μM) was 10 µM.
